{"source": "patent US6942870B2", "about": "“Compositions and methods using direct MMP inhibitors for inhibiting photoaging of skin” (The Regents of the University of Michigan, priority 1997, dated 2005)", "key": {"type I collagenase": {"system": "type I collagenase", "assay": "Type I collagenase activity/level in biopsies of UV-exposed human skin", "type": "in vivo", "conditions": "for protection against UV-induced type I collagenase activity: 2 MED, 20% NAC or 5% FDO pretreatment; for inhibition of UV-induced collagenase activity: about 2 MED, 5% topical, about seven hours prior to exposure; for collagenase activity after UV exposure: 5% ASA applied 16 hours prior to exposure; for inhibition of UV-induced increase in collagenase activity: 20% NAC", "experimental": "(§1) In the following examples, four F36T12 ERE-VHO UV bulbs were used to irradiate human skin. At all times, a Kodocel TA401/407 filter was mounted 4 cm in front of the bulbs to remove UVC radiation (<290 nm). Radiation intensity was monitored using an IL443 phototherapy radiometer and an SED240/UVB/W photodetector (International Light, Newbury, Mass.). Spectroradiometry was performed using an Optronic Labroatories OL 754 system. Total irradiance (290-800 nm) at about 43 cm (17 in.) from the source of four bulbs was about 1.5 mJ/cm^2·s (1.49×10^−3 W/cm^2). The radiation output from this bulb was determined by spectroradiometry to provide about 47% UVB and about 27% UVA (composed of about 9% UVA1 (340-400 nm) and about 18% UVA2 (320-340 nm)), the remainder being visible and IR radiation. An exposure of about 160 seconds under this set of four bulbs is equivalent to an exposure of one MED. Accordingly, when compared with natural sunlight which has 0.5% UVB and 6.5% UVA, it can be seen that the set of four bulbs used in these experiments provides far less UVA radiation than would exposure to the sun of an equivalent amount of UVB.\n(§2) In the following examples, a “standard vechicle” of 30% PEG (polyethylene glycol) in 70% ethanol (with 0.05% BHT as preservative) was used. […] MMP activities were measured by zymography.\nMatrix metalloproteinase assays. Tissue pieces were frozen in liquid nitrogen immediately after biopsy, homogenized in 20 mM Tris HCl (pH 7.6) plus 5 mM CaCl2, and centrifuged at 3000×g for 10 minutes to remove particulates. Ability to release soluble radioactive fragments from 3H-labeled fibrillar Type I collagen (described by Fisher, G. J., et al., Nature, 379, 335-339 (1996) and Hu, C-L, et al., Analytic. Biochem, 88, 638-643 (1978)) was used as a measure of collagenolytic activity. […] Subsequently, 0.2 μCi of collagen substrate (NEN-DuPont, Boston, Mass.) was incubated for 24 hours with 50 μl of tissue extract. At the end of the 24-hour incubation period, the samples were centrifuged at 12,000×g for 10 minutes to pellet the intact protein. Radioactivity remaining in the supernatant fluid was then measured and from this, the percentage of substrate hydrolzyed was determined."}, "human skin": {"system": "human skin", "assay": "UV-induced erythema (skin reddening) of human skin after topical pretreatment, chromameter", "type": "in vivo", "conditions": "for protection against UV-induced erythema / reduction in erythema: 5% ASA or 3.5% vit. C applied 16 hours prior to exposure; for reduction in erythema: vs untreated (vehicle-only) skin; for inhibition of UV-induced erythema: 2 MED, 20% NAC or 5% FDO pretreatment; for prevention of UV-induced erythema: 5% topical, applied about seven hours prior to UV exposure, vs vehicle-treated skin", "experimental": "as §1, §2\nChromameter: erythema (skin reddening) was determined 24 h post-exposure using a commercially available Minolta chromameter (chromameter CR200, model 94401085)."}, "92 KDa gelatinase": {"system": "92 KDa gelatinase", "assay": "92 kDa gelatinase activity/level in biopsies of UV-exposed human skin (gelatin zymography)", "type": "in vivo", "conditions": "for inhibition of UV-induced 92 KDa gelatinase activity: 5% topical, about seven hours prior to exposure; for inhibition of UV-induced increase in 92 KDa gelatinase activity: 1 MED, 20% NAC", "experimental": "as §1, §2\nGelatin zymography (Varani et al., op. cit.) was used to assess MMP-2 (72-kD gelatinase; gelatinase A) and MMP9 (92-kD gelatinase; gelatinase B) activity. Tissue extracts were electrophoresed in an 8.5% SDS-polyacrylamide gel containing 1 mg/ml of gelatin. After electrophoresis, the SDS was removed by three sequential washes in 1% Triton X-100. The first two washes were for 20 minutes each and the last was overnight. Quantitation of hydrolysis zone width was done by laser densitometry."}, "[1]": {"assay": "UV absorbance characteristics of UVA blocker over UVA1, UVA2 and UVB wavelengths", "type": "physicochemical", "excerpt": "We investigated the effect of pretreatment of skin with a known UVA blocker on both erythema and MMP activity after exposure to 2 MEDs of UV radiation. In particular, we used PARSOL® 1789 (also known as PARSOL A) brand of 4-t-butyl-4′-methoxydibenzoylmethane, which is described in U.S. Pat. No. 4,387,089 (the disclosure of which is incorporated herein by reference). (PARSOL MCX and PARSOL MOX are trademarks for 2-ethylhexyl p-methoxycinnamate, a UVB blocker commonly used in commercial sunscreen, and disclosed in U.S. Pat. No. 4,713,473, the disclosure of which is incorporated herein by reference). The absorbance characteristics of PARSOL® 1789 over the UVA1, UVA2, and UVB wavelengths is shown as the dotted line in FIG. 8A."}, "[2]": {"conditions": "about 2 MED, 5% PARSOL 1789 pretreatment"}}, "note": "“Also recorded” adds a separate entry of the source."}
{"compound": "O=C1O[C@H]([C@@H](O)CO)C(O)=C1O", "note": "[vitamin C, ascorbic acid]", "values": [{"measurement": "reduction in collagenase activity", "setting": "type I collagenase; 1 MED, 3.5% vit. C applied 16 hours prior to exposure, vs untreated skin", "result": "~25", "unit": "%"}, {"measurement": "protection against UV-induced erythema", "setting": "human skin; 1 MED", "result": "provided protection against erythema; also recorded: reduced the UV-induced erythema"}, {"measurement": "reduction in erythema", "setting": "human skin; 1 MED", "result": "about 30%"}]}
{"compound": "O/N=C(/C(=N/O)c1ccco1)c1ccco1", "note": "[FDO, 2-furildioxime]", "values": [{"measurement": "protection against UV-induced type I collagenase activity", "setting": "type I collagenase", "result": "some protection against MMP induction"}, {"measurement": "inhibition of UV-induced erythema", "setting": "human skin", "result": "effective at preventing erythema; also recorded: completely inhibited erythema"}]}
{"compound": "CC1=C(/C=C/C(C)=C/C=C/C(C)=C/CO)C(C)(C)CCC1", "note": "[retinol]", "values": [{"measurement": "prevention of UV-induced elevation in type I collagenase activity", "setting": "type I collagenase; suberythemal 0.5 MED, 0.1% retinoic acid or 1% retinol pretreatment", "result": "about as effective as retinoic acid"}]}
{"compound": "COc1ccc2[nH]cc(CCNC(C)=O)c2c1", "note": "[melatonin]", "values": [{"measurement": "inhibition of UV-induced collagenase activity", "setting": "type I collagenase", "result": "neither melatonin nor vitamin E (both with pretreatment) prevented induction of MMPs; also recorded: did not function to inhibit the increased MMP activity"}, {"measurement": "inhibition of UV-induced 92 KDa gelatinase activity", "setting": "92 KDa gelatinase; about 2 MED", "result": "neither melatonin nor vitamin E (both with pretreatment) prevented induction of MMPs; also recorded: did not function to inhibit the increased MMP activity"}, {"measurement": "prevention of UV-induced erythema", "setting": "human skin; about 2 MED", "result": "significantly reduced the erythema"}, {"measurement": "prevention of UV-induced erythema", "setting": "human skin; about 2 MED, listed as Melatonin", "result": "does appear to prevent erythema"}]}
{"compound": "CC(=O)Oc1ccccc1C(=O)O", "note": "[ASA, acetyl salicylic acid]", "values": [{"measurement": "collagenase activity after UV exposure", "setting": "type I collagenase; 1 MED, vs untreated skin", "result": "not effective at preventing elevated collagenase activity"}, {"measurement": "collagenase activity after UV exposure", "setting": "type I collagenase; 1 MED, vs untreated skin, listed as aspirin", "result": "greater collagenase activity than untreated skin"}, {"measurement": "protection against UV-induced erythema", "setting": "human skin; 1 MED", "result": "provided protection against erythema"}, {"measurement": "protection against UV-induced erythema", "setting": "human skin; 1 MED, listed as aspirin", "result": "reduced the UV-induced erythema"}, {"measurement": "reduction in erythema", "setting": "human skin; 1 MED", "result": "about 30%"}]}
{"compound": "COc1ccc(C(=O)CC(=O)c2ccc(C(C)(C)C)cc2)cc1", "note": "[PARSOL® 1789, 4-t-butyl-4′-methoxydibenzoylmethane]", "values": [{"measurement": "blocking of UVA1 radiation (absorbance)", "setting": "[1]; UVA1 wavelengths", "result": "somewhat effective at blocking UVA1 radiation"}, {"measurement": "blocking of UVA2 radiation (absorbance)", "setting": "[1]; UVA2 wavelengths", "result": "especially useful at blocking UVA2 radiation"}, {"measurement": "gelatinase activity vs UV-exposed vehicle-treated skin", "setting": "92 KDa gelatinase; [2]", "result": "significantly reduced"}, {"measurement": "gelatinase activity vs vehicle-treated unexposed skin", "setting": "92 KDa gelatinase; [2]", "result": "not significantly different from vehicle-treated unexposed skin"}, {"measurement": "protection from UV-induced erythema (sunburn)", "setting": "human skin; [2]", "result": "does provide some protection"}]}
{"compound": "vitamin E", "values": [{"measurement": "inhibition of UV-induced collagenase activity", "setting": "type I collagenase", "result": "neither melatonin nor vitamin E (both with pretreatment) prevented induction of MMPs; also recorded: did not function to inhibit the increased MMP activity"}, {"measurement": "inhibition of UV-induced 92 KDa gelatinase activity", "setting": "92 KDa gelatinase; about 2 MED", "result": "neither melatonin nor vitamin E (both with pretreatment) prevented induction of MMPs; also recorded: did not function to inhibit the increased MMP activity"}, {"measurement": "prevention of UV-induced erythema", "setting": "human skin; about 2 MED", "result": "significantly reduced the erythema"}, {"measurement": "prevention of UV-induced erythema", "setting": "human skin; about 2 MED, listed as Vitamin E", "result": "slightly worse but still very effective at preventing erythema"}]}
{"compound": "CC(=O)N[C@@H](CS)C(=O)O", "note": "[NAC, N-acetyl cysteine]", "values": [{"measurement": "inhibition of UV-induced increase in collagenase activity", "setting": "type I collagenase; 1 MED, four hour pretreatment", "result": "ineffective"}, {"measurement": "inhibition of UV-induced increase in collagenase activity", "setting": "type I collagenase; 1 MED, seven hour pretreatment", "result": "provided an inhibitory effect"}, {"measurement": "protection against UV-induced type I collagenase activity", "setting": "type I collagenase", "result": "effective at preventing increased MMP activity; also recorded: significant protection against collagenase activity"}, {"measurement": "inhibition of UV-induced increase in 92 KDa gelatinase activity", "setting": "92 KDa gelatinase; four hour pretreatment", "result": "ineffective"}, {"measurement": "inhibition of UV-induced increase in 92 KDa gelatinase activity", "setting": "92 KDa gelatinase; seven hour pretreatment", "result": "provided an inhibitory effect"}, {"measurement": "anti-redness effect on UV-exposed skin", "setting": "human skin; 1 MED, 20% NAC, four or seven hours prior to exposure", "result": "no anti-redness effect"}, {"measurement": "inhibition of UV-induced erythema", "setting": "human skin", "result": "no effect against erythema"}]}
